From ChEMBL document CHEMBL5726098, “Arylquinazolines” (2019)

Molecular target: DNA-dependent protein kinase catalytic subunit (Homo sapiens, UniProt P78527)
Assay: DNA-PK Assay (Biochemical): The kinase assay was carried out in streptavidin-coated […] microtitre flashplates. […] The reaction was stopped using 50 μl/well of 200 mM EDTA. After incubation for a further 30 min at room temperature, the liquid was removed. Each well was washed three times with 100 μl of 0.9% saline solution. A nonspecific reaction (blank value) was determined using 10 μM of an innate kinase inhibitor. The radioactivity measurement was carried out using a TopCount. IC50 values were calculated in RS1.

Chain of DNA-dependent protein kinase catalytic subunit (P78527 whole entry): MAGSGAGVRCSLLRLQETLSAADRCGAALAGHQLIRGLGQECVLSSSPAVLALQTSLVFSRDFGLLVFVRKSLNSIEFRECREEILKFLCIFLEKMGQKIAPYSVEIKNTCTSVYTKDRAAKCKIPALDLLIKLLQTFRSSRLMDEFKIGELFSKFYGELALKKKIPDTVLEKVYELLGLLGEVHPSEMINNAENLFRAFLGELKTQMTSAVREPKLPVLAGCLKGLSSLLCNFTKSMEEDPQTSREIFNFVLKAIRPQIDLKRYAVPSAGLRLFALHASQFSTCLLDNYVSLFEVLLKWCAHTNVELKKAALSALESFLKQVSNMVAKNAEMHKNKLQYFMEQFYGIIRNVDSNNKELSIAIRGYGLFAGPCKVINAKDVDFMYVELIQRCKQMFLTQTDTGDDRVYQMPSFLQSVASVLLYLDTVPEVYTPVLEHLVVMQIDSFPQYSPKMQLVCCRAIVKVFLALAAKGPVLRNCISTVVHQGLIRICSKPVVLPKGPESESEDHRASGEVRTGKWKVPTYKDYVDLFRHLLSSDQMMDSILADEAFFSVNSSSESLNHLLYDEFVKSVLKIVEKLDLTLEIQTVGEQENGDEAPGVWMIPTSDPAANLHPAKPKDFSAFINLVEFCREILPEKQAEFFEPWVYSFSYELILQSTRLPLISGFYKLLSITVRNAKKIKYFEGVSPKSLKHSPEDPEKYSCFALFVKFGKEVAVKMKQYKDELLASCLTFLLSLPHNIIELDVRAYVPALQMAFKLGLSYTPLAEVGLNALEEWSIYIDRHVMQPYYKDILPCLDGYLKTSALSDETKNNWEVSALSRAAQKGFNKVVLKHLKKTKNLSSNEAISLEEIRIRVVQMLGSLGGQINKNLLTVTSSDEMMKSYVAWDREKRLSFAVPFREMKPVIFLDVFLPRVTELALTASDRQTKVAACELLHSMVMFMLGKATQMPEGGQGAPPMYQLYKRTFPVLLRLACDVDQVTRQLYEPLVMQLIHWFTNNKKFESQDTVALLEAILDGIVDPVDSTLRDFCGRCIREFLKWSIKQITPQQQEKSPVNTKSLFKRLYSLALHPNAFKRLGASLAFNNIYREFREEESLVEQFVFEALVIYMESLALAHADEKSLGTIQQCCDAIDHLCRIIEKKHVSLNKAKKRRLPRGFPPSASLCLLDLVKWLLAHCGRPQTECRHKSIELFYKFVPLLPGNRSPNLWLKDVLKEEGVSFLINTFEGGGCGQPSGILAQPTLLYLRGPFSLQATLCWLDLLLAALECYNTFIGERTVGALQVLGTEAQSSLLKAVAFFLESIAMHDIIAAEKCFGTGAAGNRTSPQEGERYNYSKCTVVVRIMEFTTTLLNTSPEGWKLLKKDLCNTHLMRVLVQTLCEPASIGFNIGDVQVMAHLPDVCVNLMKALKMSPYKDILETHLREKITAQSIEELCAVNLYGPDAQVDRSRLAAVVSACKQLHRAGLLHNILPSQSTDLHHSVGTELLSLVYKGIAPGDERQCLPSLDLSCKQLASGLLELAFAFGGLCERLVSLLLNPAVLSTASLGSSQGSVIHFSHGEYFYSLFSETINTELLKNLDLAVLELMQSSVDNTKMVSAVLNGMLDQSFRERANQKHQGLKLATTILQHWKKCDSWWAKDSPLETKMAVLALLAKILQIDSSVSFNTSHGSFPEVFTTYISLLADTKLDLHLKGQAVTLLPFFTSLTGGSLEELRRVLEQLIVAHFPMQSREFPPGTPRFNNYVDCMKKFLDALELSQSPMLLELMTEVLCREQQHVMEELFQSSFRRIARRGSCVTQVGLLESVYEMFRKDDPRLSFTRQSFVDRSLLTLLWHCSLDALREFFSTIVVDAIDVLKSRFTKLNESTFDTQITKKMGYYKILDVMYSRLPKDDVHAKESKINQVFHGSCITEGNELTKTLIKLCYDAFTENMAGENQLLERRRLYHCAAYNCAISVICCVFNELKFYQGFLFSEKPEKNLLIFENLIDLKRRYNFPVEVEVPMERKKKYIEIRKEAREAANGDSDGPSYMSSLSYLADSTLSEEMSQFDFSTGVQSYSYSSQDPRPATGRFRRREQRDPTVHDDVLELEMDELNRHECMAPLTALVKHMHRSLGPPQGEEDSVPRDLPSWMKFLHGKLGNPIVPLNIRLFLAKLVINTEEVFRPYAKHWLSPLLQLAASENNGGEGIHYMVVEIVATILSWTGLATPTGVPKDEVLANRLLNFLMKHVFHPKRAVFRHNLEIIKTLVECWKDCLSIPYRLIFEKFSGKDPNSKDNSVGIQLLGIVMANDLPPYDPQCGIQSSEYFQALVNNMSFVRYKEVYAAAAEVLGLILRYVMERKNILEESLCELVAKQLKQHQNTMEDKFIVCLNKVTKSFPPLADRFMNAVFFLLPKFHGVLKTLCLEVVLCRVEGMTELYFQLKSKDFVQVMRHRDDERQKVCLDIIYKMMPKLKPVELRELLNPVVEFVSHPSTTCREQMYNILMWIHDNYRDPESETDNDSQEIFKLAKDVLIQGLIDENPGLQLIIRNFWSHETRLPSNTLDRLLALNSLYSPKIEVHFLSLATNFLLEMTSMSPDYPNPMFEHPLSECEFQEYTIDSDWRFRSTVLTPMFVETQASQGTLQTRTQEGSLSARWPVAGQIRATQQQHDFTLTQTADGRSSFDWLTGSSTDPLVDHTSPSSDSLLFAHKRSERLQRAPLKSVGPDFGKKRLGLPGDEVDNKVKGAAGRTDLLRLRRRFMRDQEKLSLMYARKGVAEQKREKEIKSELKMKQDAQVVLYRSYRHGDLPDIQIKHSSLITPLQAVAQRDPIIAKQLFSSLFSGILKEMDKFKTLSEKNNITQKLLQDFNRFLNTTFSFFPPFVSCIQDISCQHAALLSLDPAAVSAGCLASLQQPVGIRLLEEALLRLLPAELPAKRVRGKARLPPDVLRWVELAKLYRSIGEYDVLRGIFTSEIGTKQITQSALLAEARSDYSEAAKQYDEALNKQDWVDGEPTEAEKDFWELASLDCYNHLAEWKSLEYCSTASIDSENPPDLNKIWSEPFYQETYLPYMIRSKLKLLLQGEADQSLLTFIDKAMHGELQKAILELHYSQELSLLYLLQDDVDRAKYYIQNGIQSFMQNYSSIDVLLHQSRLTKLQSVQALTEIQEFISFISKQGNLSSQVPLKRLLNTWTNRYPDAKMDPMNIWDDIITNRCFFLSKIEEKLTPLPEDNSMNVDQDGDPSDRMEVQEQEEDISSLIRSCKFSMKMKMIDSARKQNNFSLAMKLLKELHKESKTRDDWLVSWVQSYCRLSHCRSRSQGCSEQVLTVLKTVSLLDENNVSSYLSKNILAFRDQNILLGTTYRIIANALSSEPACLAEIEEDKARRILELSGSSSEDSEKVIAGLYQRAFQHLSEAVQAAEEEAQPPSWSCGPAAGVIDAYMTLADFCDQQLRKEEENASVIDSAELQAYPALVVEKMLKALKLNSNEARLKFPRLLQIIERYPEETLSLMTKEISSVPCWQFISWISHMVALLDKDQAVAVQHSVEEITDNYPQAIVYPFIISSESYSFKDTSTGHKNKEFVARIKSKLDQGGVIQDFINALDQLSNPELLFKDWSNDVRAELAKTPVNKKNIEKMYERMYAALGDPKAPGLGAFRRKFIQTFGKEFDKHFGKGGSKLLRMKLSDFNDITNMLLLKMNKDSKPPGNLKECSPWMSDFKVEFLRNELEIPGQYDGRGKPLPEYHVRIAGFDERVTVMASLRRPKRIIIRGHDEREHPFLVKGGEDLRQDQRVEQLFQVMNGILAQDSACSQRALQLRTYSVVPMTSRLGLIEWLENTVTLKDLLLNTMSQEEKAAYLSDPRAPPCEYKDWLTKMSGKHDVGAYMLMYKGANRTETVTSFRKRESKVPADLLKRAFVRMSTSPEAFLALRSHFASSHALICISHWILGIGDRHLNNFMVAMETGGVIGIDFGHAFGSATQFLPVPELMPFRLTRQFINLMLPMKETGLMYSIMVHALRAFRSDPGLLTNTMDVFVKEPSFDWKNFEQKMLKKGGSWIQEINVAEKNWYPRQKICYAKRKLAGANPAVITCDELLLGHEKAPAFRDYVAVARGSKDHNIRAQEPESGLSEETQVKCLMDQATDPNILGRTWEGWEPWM

Row | Structure (SMILES) | IC50 [nM]
1 | OCc1csc(C(O)c2cc(-c3ncnc4cc(N5C6CCC5COC6)ccc34)c(F)cc2Cl)n1 (configuration not stated) | > 30
2 | NC(=O)C(c1cc(-c2ncnc3cc(N4CCOCC4)ccc23)c(F)cc1Cl)c1ncnn2cccc12 (configuration not stated) | > 30
